Results on 2 compounds are retold here after patent US20080096830A1, “Anti-Inflammatory Macrolide Conjugates” (priority 2005, published 2008).

Molecules are shown by their SMILES.

Test [1] deals with T1, Human Prostaglandin-H Synthase-2 (hPGH-2), COX-2 (Homo sapiens, UniProt P35354).
T1 construct: expressed in transfected cells; host or cells: COS-7
T1 sequence (P35354 18-604): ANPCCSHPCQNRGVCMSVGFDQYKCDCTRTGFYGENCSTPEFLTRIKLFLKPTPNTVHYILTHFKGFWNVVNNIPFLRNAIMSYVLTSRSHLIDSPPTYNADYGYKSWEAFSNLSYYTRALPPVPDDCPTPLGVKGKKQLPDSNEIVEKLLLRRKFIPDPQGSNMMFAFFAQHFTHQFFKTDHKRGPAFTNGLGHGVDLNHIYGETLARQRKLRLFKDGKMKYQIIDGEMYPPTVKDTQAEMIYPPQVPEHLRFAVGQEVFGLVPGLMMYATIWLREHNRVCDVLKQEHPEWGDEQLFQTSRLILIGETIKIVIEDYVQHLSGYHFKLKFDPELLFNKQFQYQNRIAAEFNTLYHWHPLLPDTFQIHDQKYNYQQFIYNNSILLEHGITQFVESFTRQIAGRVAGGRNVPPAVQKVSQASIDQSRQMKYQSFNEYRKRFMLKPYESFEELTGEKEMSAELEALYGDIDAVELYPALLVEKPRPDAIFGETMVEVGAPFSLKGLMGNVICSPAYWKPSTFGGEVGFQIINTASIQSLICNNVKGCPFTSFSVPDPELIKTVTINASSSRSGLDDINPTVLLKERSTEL
Briefly: Human prostaglandin-H synthase-2 (hPGH-2) inhibition assay in transfected COS-7 cells (PGE-2). In kind it is cell-based. The following applies: COS-7 cells transfected with hPGH-2, arachidonic acid 20 μM, PGE-2 readout. On the procedure: The cells were grown in 10% fetal bovine serum (FBS) in DMEM medium (Invitrogen Life Technologies) at 37° C. in an atmosphere with 5% CO2 and 90% moisture. 20 000 cells/well were plated in 96 well plate (Falcon). The cells in a negative control were cultured only in medium (NC), while the secretion of TNF-α in a positive control was stimulated by the addition of 500 pg/mL lipopolysaccharide (LPS, E. coli serotype 0111:B4, Sigma) (PC). The effect of the tested substances on TNF-α secretion was assessed after their addition to cell cultures stimulated with LPS (TS). […] The percentage inhibition of TNF-α production was calculated by the following equation: % inhibition=[1-(TS-NC)/(PC-NC)]×100. IC50 value was defined as the concentration of the substance at which 50% of TNF-α production was inhibited. […] After 30 minutes supernatants were removed and prostoglandin E2 (PGE-2) was measured with a PGE-2 assay kit (Cayman) following the manufacturer's instructions. No production of PGE-2 was detected in negative controls. % inhibition was calculated by the following equation: % inhibition=(1-sample PGE-2 concentration/positive control PGE-2 concentration)*100.

Test [2] concerns eosinophil number in BAL fluid. Briefly: Model of lung eosinophilia in mice. The following applies: OVA-sensitised mice, i.n. or i.p. dosing, compared to the vehicle treated control group. In kind it is in vivo, Balb/C mice. On the procedure: Male Balb/C mice with a body weight of 20-25 g were randomly divided into groups, and sensitized by an i.p. injection of ovalbumin (OVA, Sigma) on day zero and day fourteen. On the twentieth day, the mice were subjected to a challenge test by i.n. (intranasal) application of OVA (positive control or test group) or PBS (negative control). 48 hours after i.n. application of OVA, the animals were anaesthetized and the lungs were rinsed with 1 mL of PBS. The cells were separated on a Cytospin 3 cytocentrifuge (Shandon). The cells were stained in Diff-Quick (Dade) and the percentage of eosinophils was determined by differential counting of at least 100 cells. The compounds were administered daily i.n. or i.p. in different doses 2 days before the provocative test and up to the completion of the test. Compounds were administered as suspension either in carboxymethyl cellulose or in lactose solution. Fluticasone and beclomethasone were used as standard anti-inflammatory substances for comparison.

A word on the IC50: it is the midpoint of a concentration-inhibition curve. Higher therefore signals weaker potency in that assay. On to `CCC1OC(=O)C(C)C(OC2CC(C)(OC)C(O)C(C)O2)C(C)C(OC2OC(C)CC(N(C)CCCNC(=O)C=Cc3cc4c(s3)-c3cc(Cl)ccc3Sc3ccccc3-4)C2O)C(C)(O)CC(C)CN(C)C(C)C(O)C1(C)O` (centres unmarked) [Compound 15], for which the IC50 in test [1] is less than 10 µM.
As for `CCC1OC(=O)C(C)C(O)C(C)C(OC2OC(C)CC(N(C)C)C2O)C(C)(O)CC(C)CN(CCCNC(=O)C=Cc2cc3c(s2)-c2cc(C)ccc2Sc2ccccc2-3)C(C)C(O)C1(C)O` (centres unmarked) [Compound 21], the “inhibition of relative eosinophil number in BAL fluid” value in test [2] was “statistically significant inhibition”.
